{
  "source": "patent US11213514B2",
  "about": "“Alpha-1-adrenergic receptor agonist therapy” (The Regents of the University of California, priority 2016, dated 2022)",
  "key": {"women": {"tested_on": "women", "conditions": "cited from earlier work"}, "[1]": {"tested_on": "neonatal rat ventricular myocytes", "assay": "Myocyte death caused by oxidative stress with H2O2", "type": "cell-based", "conditions": "neonatal rat ventricular myocytes (FIG. 7)"}, "mouse heart": {"tested_on": "mouse heart", "assay": "Pressure overload cardiomyopathy caused by transverse aortic constriction", "type": "in vivo", "conditions": "mice, TAC day 0, osmotic minipumps from 4 weeks; both doses 20 ug/kg/d and 200 ug/kg/d; day 55", "method": "FIG. 8. […] Cardiac function was measured before TAC, and every 2 weeks, using echocardiography."}, "wild type mice [2]": {"tested_on": "wild type mice", "assay": "Indexed heart weight after 7-day gavage treatment in uninjured mice", "type": "in vivo, mouse", "conditions": "for Body weight, final / Heart weight / Heart weight/tibia length / Heart/body weight: uninjured wild type mice, 7 days", "method": "(§1) FIGS. 1A-1C. […] FIG. 1A. Blood pressure (BP) and heart rate (HR) were measured non-invasively in male mice for 10 consecutive days using a CODA Volume Pressure Recording tail cuff system (Kent Scientific). All daily values represent the average of at least 20 cuff inflations. Mice were acclimatized to the apparatus for the first 5 days, during which no drug was administered. […] FIG. 1B. […] Heart weight (HW, in mg) was indexed to tibia length (TL, in mm). FIG. 1C. Quantitative RT-PCR was performed using heart tissue snap frozen at the time of sacrifice. Target transcripts (ANP=atrial natriuretic peptide; MHCβ=myosin heavy chain beta; α-skAct=alpha skeletal actin) were quantified relative to two standard transcripts (Polr2a=DNA-directed RNA polymerase II, subunit A; TBP=TATA-binding protein)."}, "pigs": {"tested_on": "pigs", "conditions": "10 μg/kg; cited from earlier work"}, "[3]": {"tested_on": "atrial natriuretic peptide, beta myosin heavy chain, alpha-skeletal actin transcripts", "assay": "qRT-PCR of molecular markers of hypertrophy in mouse hearts", "type": "in vivo", "conditions": "hearts of mice treated with dabuzalgron", "method": "as §1\nWe used qRT-PCR to assay traditionally accepted molecular markers of hypertrophy in the hearts of mice treated with dabuzalgron. There was no change in the transcript abundance of atrial natriuretic peptide, beta myosin heavy chain, or alpha-skeletal actin. (FIG. 1C)\nTotal RNA was isolated from cells and tissue (QiagenRNeasy Plus mini kit #74134) and analyzed using a NanoDrop (ThermoScientific). For qRT-PCR, one […]g of RNA was reverse transcribed using High Capacity cDNA Reverse Transcription Kit (Life Technologies #4368814). Two step qRT-PCR reactions contained 2% of the cDNA product. All reactions were performed in triplicate in a Roche 480 Light Cycler. Relative quantitation of PCR products used the ΔΔCt method relative to two validated reference genes (Tbp and Polr2a). Similar efficiencies were confirmed for all primers. All probes and primers were from Roche."}, "ERK": {"tested_on": "ERK", "assay": "ERK activation in neonatal rat ventricular myocytes (pERK/ERK Western blot)", "type": "cell-based", "conditions": "Rattus norvegicus, Ventricular myocyte; uninjured NRVMs, 15 minutes, propranolol pre-treatment; read-out: EC50, ERK phosphorylation", "from_the_text": "FIGS. 4A-4F. […] The reaction was stopped immediately and lysates were blotted for total and phospho-ERK (pERK). FIG. 4A. Representative Western blot. FIG. 4B. […] FIG. 4C. Summary of pERK/ERK for experiments using 5 different NRVM isolations. The average pERK/ERK ratio for each experiment was derived from at least 2 individual wells and normalized to the pERK/ERK ratio for vehicle treated NRVMs. FIG. 4D and FIG. 4E. […] Heart lysates were blotted for pERK and ERK. Results were compared using one way ANOVA with Tukey post-test. FIG. 4F.\nDabuzalgron protects neonatal rat ventricular myocytes from cell death due to doxorubicin. […] (FIG. 4C).\nFemale Sprague-Dawley rats were from Charles River. NRVMs were isolated as previously described.7 Briefly, hearts from 1-2 day old rat pups were minced, digested serially in collagenase (Worthington)-containing solution, filtered, then pre-plated to exclude non-myocyotes. NRVMs were then plated on laminin-coated dishes in DMEM with 5% fetal bovine serum (Sigma F2442) for 24 hours. Experiments were carried out after 36-96 hours of serum starvation in the presence of insulin, transferrin, and BrdU. […]\nAll results are presented as mean±SEM. […] EC50 for ERK activation was calculated using sigmoidal dose-response analysis (Prism)."}, "wild type mice [4]": {"tested_on": "wild type mice", "assay": "Tail cuff blood pressure and heart rate in uninjured mice", "type": "in vivo, mouse", "conditions": "any dose 1-100 μg/kg/day, gavage twice daily for 5 days", "method": "as §1\nUntreated mice were trained on the tail cuff apparatus daily for 5 days.\nTail cuff blood pressure (BP) and heart rate (HR) were obtained on awake mice by repeated measurements using a CODA Volume Pressure Recording tail cuff system (Kent Scientific).2 Mice were trained to the apparatus for 5 days prior to data collection. Systolic BP and HR measurements represent the average of at least 20 tail cuff inflations per mouse each afternoon."}, "[5]": {"conditions": "human, 1.5 mg by mouth twice daily"}, "[6]": {"conditions": "any dose 1-100 μg/kg/day, gavage twice daily for 7 days"}},
  "data": [
    {"smiles": "Cc1c(OCC2=NCCN2)ccc(Cl)c1NS(C)(=O)=O", "note": "[dabuzalgron, N-[6-chloro-3-(4,5-dihydro-1H-imidazol-2-ylmethoxy)-2-methylphenyl]methanesulfonamide]", "values": [
      {"measurement": "BP", "setting": "women; [5]", "value": "did not alter"},
      {"measurement": "HR", "setting": "women; [5]", "value": "did not alter"},
      {"measurement": "difference in urinary incontinence between dabuzalgron and placebo groups", "setting": "women; interim analysis of the Phase 2 trials", "value": "no clinically meaningful difference"},
      {"measurement": "changes in BP", "setting": "women; subjects who received dabuzalgron in any of these trials", "value": "no significant changes"},
      {"measurement": "tolerability", "setting": "women; total of 1,223 women, Phase 1, two Phase 2 trials and open-label study", "value": "well tolerated"},
      {"measurement": "myocyte death caused by oxidative stress with H2O2", "setting": "[1]", "value": "prevents"},
      {"measurement": "cardiac function (fractional shortening) compared with vehicle", "setting": "mouse heart", "value": "significant improvement"},
      {"measurement": "change in body weight", "setting": "wild type mice [2]; [6]", "value": "no measurable change"},
      {"measurement": "change in heart weight", "setting": "wild type mice [2]; [6]", "value": "no measurable change"},
      {"measurement": "Body weight, final", "setting": "wild type mice [2]; 0.2 μg/kg/day gavage", "value": "25.3 ± 0.4", "unit": "g"},
      {"measurement": "Heart weight", "setting": "wild type mice [2]; 0.2 μg/kg/day gavage", "value": "106 ± 4", "unit": "mg"},
      {"measurement": "Heart weight/tibia length", "setting": "wild type mice [2]; 0.2 μg/kg/day gavage", "value": "6.1 ± 0.3", "unit": "mg/mm"},
      {"measurement": "Heart/body weight", "setting": "wild type mice [2]; 0.2 μg/kg/day gavage", "value": "0.42 ± 0.01", "unit": "%"},
      {"measurement": "Body weight, final", "setting": "wild type mice [2]; 2 μg/kg/day gavage", "value": "25.9 ± 0.8", "unit": "g"},
      {"measurement": "Heart weight", "setting": "wild type mice [2]; 2 μg/kg/day gavage", "value": "106 ± 4", "unit": "mg"},
      {"measurement": "Heart weight/tibia length", "setting": "wild type mice [2]; 2 μg/kg/day gavage", "value": "6.1 ± 0.2", "unit": "mg/mm"},
      {"measurement": "Heart/body weight", "setting": "wild type mice [2]; 2 μg/kg/day gavage", "value": "0.41 ± 0.02", "unit": "%"},
      {"measurement": "Body weight, final", "setting": "wild type mice [2]; 20 μg/kg/day gavage", "value": "27.3 ± 1.1", "unit": "g"},
      {"measurement": "Heart weight", "setting": "wild type mice [2]; 20 μg/kg/day gavage", "value": "110 ± 4", "unit": "mg"},
      {"measurement": "Heart weight/tibia length", "setting": "wild type mice [2]; 20 μg/kg/day gavage", "value": "5.9 ± 0.2", "unit": "mg/mm"},
      {"measurement": "Heart/body weight", "setting": "wild type mice [2]; 20 μg/kg/day gavage", "value": "0.41 ± 0.01", "unit": "%"},
      {"measurement": "Body weight, final", "setting": "wild type mice [2]; 200 μg/kg/day gavage", "value": "27.4 ± 1.6", "unit": "g"},
      {"measurement": "Heart weight", "setting": "wild type mice [2]; 200 μg/kg/day gavage", "value": "113 ± 6", "unit": "mg"},
      {"measurement": "Heart weight/tibia length", "setting": "wild type mice [2]; 200 μg/kg/day gavage", "value": "6.1 ± 0.3", "unit": "mg/mm"},
      {"measurement": "Heart/body weight", "setting": "wild type mice [2]; 200 μg/kg/day gavage", "value": "0.41 ± 0.01", "unit": "%"},
      {"measurement": "effect on BP", "setting": "pigs", "value": "no effect"},
      {"measurement": "transcript abundance of alpha-skeletal actin", "setting": "[3]", "value": "no change"},
      {"measurement": "transcript abundance of atrial natriuretic peptide", "setting": "[3]", "value": "no change"},
      {"measurement": "transcript abundance of beta myosin heavy chain", "setting": "[3]", "value": "no change"},
      {"measurement": "EC50", "setting": "ERK", "value": 480, "unit": "nM"},
      {"measurement": "HR vs vehicle", "setting": "wild type mice [4]", "value": "no difference"},
      {"measurement": "systolic BP vs vehicle", "setting": "wild type mice [4]", "value": "no difference"}
    ]}
  ]
}
